Experimental data as given in patent US20250367283A1, “MEVALONATE PATHWAY INHIBITOR AS HIGHLY-EFFICIENT VACCINE ADJUVANT” (Tsinghua University, priority 2015, published 2025).
Where two headings read alike, the source gives them in different places.

Columns and labels:
[1] = tested on: anti-OVA IgM and IgG antibodies; experiment: OVA evaluation system: adjuvant activity in antibody titer in mice; assay type: in vivo; details: for IgM and IgG antibody titers vs PBS or DMSO control / adjuvant effect among statin drugs: statins with OVA, soles injection; for IgM and IgG antibody titers vs PBS or DMSO control: Day 7 and Day 14
Method: OVA evaluation system was used to determine adjuvant activity in antibody titer.
Mice of C57B/6 strain were used. The mice in the experimental group were injected with the obtained mixture of each of the statins and OVA antigen through soles injection, with 20 μl for each mouse. The mice in the control group were injected with a 1:1 mixture of PBS or DMSO (10 μl) and 10 μl OVA antigen (PBS or DMSO is 10 μl, respectively, and the antigen is 10 μl) through soles injection, with 20 μl for each mouse. On Day 7 and Day 14 after immunization, blood was taken from the mice's orbits, with 100 μl was taken from each mouse. The obtained blood was left at 4° C. overnight, and centrifuged at 6000 rpm for 8 min. The supernatant serum was removed and the titers of anti-OVA IgM and IgG antibodies in the serum were determined.
Test of the OVA antibody titer: The OVA protein was diluted to a concentration of 2 μg/ml with a carbonate solution of pH 9.6, coated in a 96-well ELISA plate at 50 μl per well, and left at 4° C. overnight. The ELISA plate was washed five times with PBS containing 0.05% Tween 20, blocked with 1% BSA solution at 200 μl per well, and incubated at room temperature for 2 h. The ELISA plate was washed five times with PBST (Phosphate Buffered Saline with Tween), a 2-fold serial dilution of the mouse serum after immunized with OVA was added at 50 μl per well and incubated at room temperature for 2 h. After the ELISA plate was washed five times with PBST, HRP (horseradish peroxidase)-labeled goat-anti-mouse IgM or IgG antibody was added and incubated at room temperature for 45 min. The ELISA plate was washed five times with PBST, and a color developing solution of sodium citrate OPD (o-phenylenediamine) was added. After 10 min of color development in the dark, sulfuric acid was added to terminate the reaction. The reading was performed with ELIASA OD490. The maximum serum dilution factor, when the ratio of light absorptions of the experimental group to the control group was >2.0, was the titer of the anti-OVA antibody in the serum.
Each test compound was formulated at a concentration of 2 mg/ml and the concentration of OVA antigen was 2 mg/ml. Each compound was mixed with OVA at 1:1. Each C57B/6 mouse in the experimental group was injected with 100 μl of the mixture (containing 50 μl of the antigen and 50 μl of the compound) by intramuscular injection at the right thigh. On Day 7 and Day 14 after immunization, blood was taken from the mice's orbit, and 100 μl was taken for each mouse. The obtained blood was allowed to stand at 4° C. overnight, and centrifuged at 6000 rpm for 8 min. The supernatant serum was removed, and the titers of anti-OVA IgM and IgG antibodies in the serum were determined.
Method: each of the test compounds (the 10 bisphosphonates as described above) was mixed with the OVE antigen at 1:1, and the concentrations of bisphosphonic acid and OVA were both 10 mg/ml. Mice of C57B/6 strain were used. The mice in the experimental group were injected with the mixture of each of the test compounds and OVA antigen through soles injection, with 20 μl for each mouse, and wherein the amounts of OVA antigen and each of the test compounds were both 100 ug. The mice in the control group were injected with a 1:1 mixture of […] and 10 μl OVA antigen through sole injection. On Day 7 and Day 14 after immunization, blood was taken from the mice's orbits, and 100 μl was taken from each mouse.
The obtained blood was left at 4° C. overnight, and centrifuged at 6000 rpm for 8 min. The supernatant serum was removed, and the titers of anti-OVA IgM and IgG antibodies in the serum were determined.
Method: TH-Z144 and TH-Z145 were prepared at the concentration of 10 mg/ml, the concentration of OVA antigen was also 10 mg/ml, and the compound and the antigen were mixed at 1:1. Mice of C57B/6 strain were used.

[2] = target: humanized farnesyl pyrophosphate synthase (HsFPPS) (Homo sapiens (Human), UniProt P14324); experiment: In vitro HsFPPS enzyme activity assay; assay type: biochemical
Sequence of humanized farnesyl pyrophosphate synthase (HsFPPS) (P14324 whole entry, looked up): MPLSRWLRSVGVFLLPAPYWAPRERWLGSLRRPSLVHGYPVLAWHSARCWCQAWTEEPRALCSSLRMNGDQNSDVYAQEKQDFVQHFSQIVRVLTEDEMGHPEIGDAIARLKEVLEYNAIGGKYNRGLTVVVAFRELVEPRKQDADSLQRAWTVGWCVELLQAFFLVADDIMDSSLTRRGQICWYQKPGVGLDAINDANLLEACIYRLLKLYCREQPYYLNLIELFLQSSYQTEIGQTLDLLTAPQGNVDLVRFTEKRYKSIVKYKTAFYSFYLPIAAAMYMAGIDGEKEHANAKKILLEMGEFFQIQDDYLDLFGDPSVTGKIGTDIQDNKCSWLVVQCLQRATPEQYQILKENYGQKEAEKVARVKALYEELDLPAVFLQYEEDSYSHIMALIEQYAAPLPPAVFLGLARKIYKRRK
Method: The measurement method is briefly described as follows: the expression of HsFPPS with 6 consecutive His at the N-terminus was induced in vitro, collected, and purified by Ni column. An in vitro HsFPPS enzyme activity assay was performed in a 96-well plate with 200 μl of solution per well. The buffer of the system was 25 mM HEPES, 2.5 mM MgCl2, pH 7.4. Using DMAPP and IPP as reaction substrates, the change of the UV value at a wavelength of 360 nm was monitored in real time in a phosphate lyase system. The ORIGIN 8.0 software was used to plot and fit. The IC50 values for the inhibition of FPPS by the TH-Z80 series of compounds were shown in the following table, in micromoles per liter (μM).
(§1) HsFPPs with 6 consecutive His at the N-terminus was induced to express in vitro, collected, and purified by Ni column. In vitro HsFPPs enzymatic activity assay was performed in a 96-well plate at 200 μl of solution per well. The buffer of the system was 25 mM HEPES, 2.5 mM MgCl2, pH 7.4. Using DMAPP and IPP as reaction substrates, the changes of UV at 360 nm were monitored in real-time in phosphate lyase system. ORIGIN 8.0 software was used to plot and fit.

[3] = tested on: PvGGPPS (geranylgeranyl pyrophosphate synthase from Plasmodium); experiment: In vitro PvGGPPS enzymatic activity assay; assay type: biochemical; details: GPP and IPP substrates
Method: as §1, with “PvGGPPs” for “HsFPPs”, “GPP” for “DMAPP”, “a” for “the changes of UV at”, “continuous spectrophotometric detection was performed” for “were monitored”, “a” for “real-time in”

[4] = tested on: Plasmodium falciparum 3D7; experiment: Test of plasmodium activity (SYBR-GREEN1); assay type: cell-based; details: infected erythrocytes, 72 hours; read-out: Malaria (IC50/μM)
Method: Plasmodium falciparum 3D7 was cultured with […] medium mixed with 10% human O-type blood serum and 25 mM HEPES. The cultivation process was maintained in a carbon dioxide incubator under 5% carbon dioxide. In vitro drug testing experiments were performed on a 96-well plate. The test drug was dissolved in PBS and pre-diluted with complete medium. Infected erythrocytes were cultured in triplicate for 72 hours in 3-fold serial dilutions of drug. Then an equal amount of SYBR-GREEN1 was added to each well. The detection was then performed at 485 nm for excitation light and 538 nm for emitted light. […] ORIGIN 8.0 software was used to plot and fit.

[5] = tested on: MDA-MB-231 cells; experiment: MDA-MB-231 proliferation MTT test; assay type: cell-based, human; details: 72 hours
Method: • Drug dissolution: […] The prepared bisphosphonate stock solution was diluted with DMEM complete medium. The maximum concentration was 1 mM. The dilution was performed serially in a ratio of 1:3.2 with a total of 11 concentration gradients; a. MDA-MB-231 cells were digested the day before. Centrifugation was performed at 1000 rmp for 3 min. The cells were counted. The cells were seeded into a 96-well plate at 3000 cells/well in a volume of 100 μl per well and cultured for 14-16 h. It should be noted that the cell count should be accurate, and the amount of cells seeded per well should be consistent. The cell suspension can be gently shaken in the intermittence of plating, or a row of cells were plated and the cell suspension was pipetted gently with a pipette. The speed of pipetting into the 96-well plate with a pipette should not be too fast or too slow, in order to avoid uneven distribution of cells in the plate, affecting the experiments; the wells at the fringe of the 96-well plate will evaporate slightly faster and the concentration of the solution will change slightly faster. Under normal situation, the central 60 wells should be selected for stimulation. Also, the pipetted liquid should be prevented from creating bubbles. b. After the cells had adhered, the liquid in the 96-well plate was pipetted out and discarded. […] c. 72 hours after the action of drug, the prepared MTT solution (immediately before use, a certain amount of MTT powder was weighed and dissolved in PBS at 5 mg/ml, under dark, filter with 0.22 filter membrane) was added directly to each well with 20 μl per well and continued to culture for 4 hours; d. The filter paper (which can be replaced by an absorbent paper) was laid, and the plate was inverted gently (be careful to prevent the crystal in the well from dropping). After the liquid in the wells was removed, 150 μl of DMSO was added to dissolve the crystals, and the mixture was shaken thoroughly with a shaker for a period of time just to dissolve the crystals. The absorbance (OD value) of each well was measured at 570 nm with ELIASA. The mean value of blank control was calculated as OD Blank. OD value for each well=OD measured-OD Blank. ODNT mean value was calculated. […] Mean and standard error were then calculated. The mean and standard error of each group of drug concentration (uM) and corresponding drug inhibition rate were fitted by Graph Prism software to obtain the IC50 of the drug.

[6] = Example 15 table, read-out: HsFPPS (IC50/μM)
[7] = TH-Z80 series, DMAPP and IPP substrates, pH 7.4, read-out: IC50 for inhibition of FPPS
[8] = o-aminopyridine bisphosphonic acid compounds, read-out: IC50 (inhibition of FPPS)

CC(=C\C(=O)O)/C=C(\C)C[C@H](C)CCCC[C@H]1OC(=O)[C@@H]1CO [Hymeglusin, 11-[3R-(hydroxymethyl)-4-oxo-2R-oxetanyl]-3,5,7R-trimethyl-2E,4E-undecadienoic acid, reference compound]
IgG antibody titer vs PBS control ([1]; 100 μg, intramuscular, fourteen days after immunization): significantly higher titers

O=P(O)(O)C(O)(Cn1cnc2cc(OCl)ccc21)P(=O)(O)O [II-7]
IC50 [2, 6]: 0.16 µM | IC50 [3]: 0.82 µM | IC50 [4]: 0.69 µM

O=P([O-])([O-])C(CCCc1cccc(Oc2ccccc2)c1)S(=O)(=O)[O-].[K+].[K+].[K+] (stereo not shown) [TH-Z66, reference compound]
IgG antibody titer vs control group ([1]; 7 days after immunization): lower than those in mice in the control group | adjuvant effect ([1]; SQS inhibitor): does not have an adjuvant effect | IgG and IgM antibody titers vs PBS control ([1]; SQS inhibitor 100 μg with OVA, sole): did not differ significantly

COc1ccc2c(c1)ncn2CC(O)(P(=O)(O)O)P(=O)(O)O [TH-Z79]
IC50 [2, 6]: 0.1 to 0.3 µM | IC50 [2, 7]: 0.1 to 0.3 µM | IC50 [3]: 0.61 µM | IC50 [4]: 0.96 µM | IC50 [5]: 50900 nM

CCCCCCOc1ccn2c(CC(O)(P(=O)(O)O)P(=O)(O)O)cnc2c1 [TH-Z97, (1-hydroxy-2-(7-n-hexyloxyimidazo[1,2-a]pyridin-3-yl)ethane-1,1-diyl)bisphosphonic acid]
IC50 [2]: 0.06 µM | IgG antibody titer vs PBS control ([1]; Day 7 and Day 14, OVA): significantly higher titers

O=P(O)(O)C(Nc1cc(OCc2ccccc2)ccn1)P(=O)(O)O [TH-Z106]
IC50 [2, 8]: 0.108 µM

O=P(O)(O)C(Nc1cc(-n2cc3c(n2)CCCC3)ccn1)P(=O)(O)O [TH-Z108]
IC50 [2, 8]: 0.112 µM

NC(=O)c1cc(COc2ccnc(NC(P(=O)(O)O)P(=O)(O)O)c2)ccn1 [TH-Z109]
IC50 [2, 8]: 0.643 µM

CCOc1ccc2c(c1)ncn2CC(O)(P(=O)(O)O)P(=O)(O)O [TH-Z148]
IC50 [2, 6]: 0.068 µM | IC50 [2, 7]: 0.068 µM | IC50 [3]: 0.56 µM | IC50 [4]: 1.86 µM | IC50 [5]: 7300 nM

CCCOc1ccc2c(c1)ncn2CC(O)(P(=O)(O)O)P(=O)(O)O [TH-Z149]
IC50 [2, 6]: 0.27 µM | IC50 [2, 7]: 0.27 µM | IC50 [3]: 0.47 µM | IC50 [4]: 0.92 µM | IC50 [5]: 36100 nM

CCCCOc1ccc2c(c1)ncn2CC(O)(P(=O)(O)O)P(=O)(O)O [TH-Z150]
IC50 [2, 6]: 0.14 µM | IC50 [2, 7]: 0.14 µM | IC50 [3]: 0.28 µM | IC50 [4]: 0.78 µM | IC50 [5]: 128000 nM

CCCCCCCCCCCCOc1ccc2c(c1)ncn2CC(O)(P(=O)(O)O)P(=O)(O)O [TH-Z154]
IC50 [2, 6]: > 5 µM | IC50 [2, 7]: > 5 µM | IC50 [3]: 5.16 µM | IC50 [4]: 0.75 µM

CC(C)n1c(/C=C/C(O)CC(O)CC(=O)O)c(-c2ccc(F)cc2)c2ccccc21 (stereo not shown) [fluvastatin, reference compound]
IgM and IgG antibody titers vs PBS or DMSO control [1]: significantly higher titers

CC[C@H](C)C(=O)O[C@H]1C[C@@H](C)C=C2C=C[C@H](C)[C@H](CC[C@@H]3C[C@@H](O)CC(=O)O3)[C@H]21 [lovastatin, reference compound]
adjuvant effect among statin drugs [1]: most significant adjuvant effects | IgM and IgG antibody titers vs PBS or DMSO control [1]: significantly higher titers

CC[C@H](C)C(=O)O[C@H]1CCC=C2C=C[C@H](C)[C@H](CC[C@@H]3C[C@@H](O)CC(=O)O3)[C@H]21 [mevastatin, reference compound]
adjuvant effect among statin drugs [1]: most significant adjuvant effects | IgM and IgG antibody titers vs PBS or DMSO control [1]: significantly higher titers

O=C(O)C[C@H](O)C[C@H](O)/C=C/c1c(C2CC2)nc2ccccc2c1-c1ccc(F)cc1 [pitavastatin, reference compound]
IgM and IgG antibody titers vs PBS or DMSO control [1]: significantly higher titers

CC(C)c1nc(N(C)S(C)(=O)=O)nc(-c2ccc(F)cc2)c1/C=C/[C@@H](O)C[C@@H](O)CC(=O)O [rosuvastatin, reference compound]
IgM and IgG antibody titers vs PBS or DMSO control [1]: significantly higher titers
